This passage reports IC50 results from ChEMBL document CHEMBL2346642, “Antioxidant and antiproliferative activity of glycosides obtained by biotransformation of xanthohumol” (Bioorg Med Chem Lett, 2013).

In assay [1] the test system is Radical scavenging activity. Put plainly: Antioxidant activity assessed as DPPH radical scavenging activity by UV-vis spectrophotometry analysis. It counts as functional.
The next assay relates to HT-29. Put plainly: Antiproliferative activity against human HT-29 cells after 72 hrs by SRB assay. It counts as functional, cell-based.
The next assay deals with MCF7. Put plainly: Antiproliferative activity against human MCF7 cells after 72 hrs by SRB assay. The settings on record: MCF7, 72 h. The class given is functional, cell-based.
The test system of the next assay is PC-3. Put plainly: Antiproliferative activity against human PC3 cells after 72 hrs by SRB assay. It counts as functional, cell-based.
Setting [2] is: Homo sapiens, HT-29, 72 h, read-out: IC50.
[3] abbreviates: Homo sapiens, PC-3, 72 h, read-out: IC50.

As for `O=C1O[C@H]([C@@H](O)CO)C(O)=C1O` [ASCORBIC ACID], the IC50 in assay [1] turned out to be 0.52 µM.
For `COc1cc(O[C@@H]2O[C@H](CO)[C@@H](O)[C@H](O)[C@H]2O)c(CC=C(C)C)c(O)c1C(=O)/C=C/c1ccc(O)cc1` [XANTHOHUMOL-4'-O-BETA-D-GLUCOPYRANOSIDE], the IC50 is 63.6 µM with HT-29 (setting [2]), 51.4 µM in the assay on MCF7, 0.77 µM in assay [1] and 58.1 µM in the assay with PC-3 (setting [3]).
Taken in the same sequence, the figures for `COc1cc(O[C@@H]2O[C@H](CO)[C@@H](OC)[C@H](O)[C@H]2O)c(CC=C(C)C)c(O)c1C(=O)/C=C/c1ccc(O)cc1` were 51.8 µM, 19.9 µM, 9.06 µM and 47.9 µM.
Regarding `COc1cc(O)c(CC=C(C)C)c(O)c1C(=O)/C=C/c1ccc(O)cc1` [XANTHOHUMOL], the IC50 in assay [1] is 1.98 µM.
Consider `COc1cc(O[C@@H]2O[C@H](CO)[C@@H](O)[C@H](O)[C@H]2O)c(CC=C(C)C)c2c1C(=O)C[C@@H](c1ccc(O)cc1)O2`, for which the IC50 entry is “Not Active” in the assay on HT-29 (ht-29), 146 µM in the assay with MCF7, 6.13 µM in assay [1] and “Not Active” with PC-3 (pc-3).
